# Experimental data as given in publication PMC12028564, “A New Class of BRCA1 Mimetics for ERα-Positive Breast Cancer Therapy: Design, Synthesis, In Silico Screening, In Vitro Assay, and Gene Expression Analysis” (Life, 2025).
# Like-named read-outs stand apart in the source and are kept apart here.
# Columns and labels:
# [1] = system: Vero cells; experiment: MTT cytotoxicity assay on Vero cells; format: cell-based
# Text: (§1) Vero cells are known for their ability to assess the safety of new compounds and their sensitivity to a wide range of toxic substances. MDA-MB-231 cells are derived from human […] breast cancer tissue. MDA-MB-231 cells provide a reliable method for assessing the toxicity and effectiveness of potential anticancer compounds, especially those that target estrogen receptors or associated pathways. We assessed the anticancer activity of the compounds on Vero cells and MDA-MB-231 using the MTT (3-(4,5-dimethyl thiazol-2yl)-2,5-diphenyl tetrazolium bromide) assay. The MTT assay is one of the most commonly used for cancer drug screening. This is a basic and easy assay for cytotoxicity, and it is one of the most popular cytotoxicity assays in the research laboratory. We plated cells (1 × 10^5/well) in 96-well plates using 0.2 mL of medium per well. We carefully removed the media from the wells for the MTT assay after incubation. After two to three MEM (w/o) FCS washes, 200 µL of MTT (5 mg/mL) was added to each well. We incubated the plates for 6–7 h in a 5% CO^2 incubator to test for cytotoxicity. Following the incubation, we added […] of vehicle (DMSO) to each well, mixed it thoroughly with a micropipette, and left it for 45 s. NADPH-dependent dehydrogenase catalyzes the conversion of tetrazolium salt (MTT) into a purple formazan product in cells. This indicates the presence of metabolically active cells. We placed the solution in the spectrophotometer’s cuvette and recorded the optical density at 595 nm, using DMSO as the blank reference. Measurements were conducted, and the concentration required for 50% inhibition of viability (IC50) was visually determined. A standard graph was constructed, with the drug concentration plotted on the X-axis and relative cell viability on the Y-axis. %Cell Viability=Mean Optical Density of Individual Sample/Mean Optical Density of Control×100
# [2] = system: MDA-MB-231 cells; experiment: MTT cytotoxicity assay on MDA-MB-231 cells; format: cell-based, human
# Text: as §1
# [3] = system: Cyclin D1; experiment: RT-qPCR gene expression of Cyclin D1 (ΔΔCt method, GAPDH reference) in MDA-MB-231 cells; format: cell-based, human; details: for Cyclin D1 ΔΔCt: versus cell control
# Text: (§2) To determine whether the synthesized compounds were repressing the ER alpha protein or not, we performed gene expression analyses for Cyclin D1 and BCL2 using the real-time quantitative polymerase chain reaction (RT-qPCR). RT-qPCR is an efficient, simple, and low-cost technique to quantify gene expression levels. The delta-delta Ct (ΔΔCt) method is a widely used technique for analyzing real-time quantitative PCR (qPCR) data. We chose three compounds, 9b, 9l, and 9m, based on their lowest IC50 values and conducted gene expression studies for BCL2 and Cyclin D1. We used the GAPDH as a reference gene. We chose primer pairings with the lowest penalty value designed by the Primer Express 2.0 software to obtain the best results.
# A 100-picomolar primer stock was prepared utilizing primers of Cyclin D1, BCL2, and GAPDH (Table 6), which were then diluted to a 10-picomolar working stock for use in real-time PCR. RNA was extracted from four samples utilizing the PureLink RNA Mini Kit and quantified using the Biophotometer Plus (Table 3). A total of 1 µg of RNA was taken from the isolated RNA and used for cDNA synthesis with the Takara Prime Script 1st Strand cDNA Synthesis Kit. Each real-time PCR experiment utilized 25 ng of cDNA, 10 picomolar forward and reverse primers, and a final reaction volume of 20 µL. Cyclin D1, BCL2, and GAPDH average Ct values were extracted from each sample’s replicates. Then, using the formula below (1), we determined the ΔCt from the mean Ct values of Cyclin D1 and BCL2 with reference to the reference gene’s GAPDH mean Ct values. In the real-time qPCR, the temperature was set at 95 °C for 10 min (denaturation), then 40 cycles at 95 °C for 15 s and 60 °C for one minute. Each sample was processed in triplicate in six-well plates for the qPCR analysis using the Qiagen kit. The comparative Ct was used for quantification analysis, and the Ct values (Ct1, Ct2, and Ct3) were averaged.ΔCt = Ct (gene of interest) − Ct (housekeeping gene)(1)
# We calculated the ΔΔCt from the ΔCt values of the Cyclin D1 and BCL2. The […] were calculated using the following Formula (2).ΔΔCt = ΔCt (Sample) − ΔCt (Control)(2)
# Finally, we calculated the fold gene expression for CyclinD1 and BCL2 with reference to the reference gene GAPDH using the following Formula (3) (Table 5).Fold gene expression = 2^−ΔΔCt(3)
# [4] = system: BCL2; experiment: RT-qPCR gene expression of BCL2 (ΔΔCt method, GAPDH reference) in MDA-MB-231 cells; format: cell-based, human; details: versus cell control
# Text: as §2, with “We chose primer pairings with the lowest penalty value designed by the Primer Express 2.0 software to obtain the best results.” left out
# A 100-picomolar primer stock was prepared utilizing primers of Cyclin D1, BCL2, and GAPDH (Table 6), which were then diluted to a 10-picomolar working stock for use in real-time PCR. RNA was extracted from four samples utilizing the PureLink RNA Mini Kit and quantified using the Biophotometer Plus (Table 3). […] Then, using the formula below (1), we determined the ΔCt from the mean Ct values of Cyclin D1 and BCL2 with reference to the reference gene’s GAPDH mean Ct values. […] The comparative Ct was used for quantification analysis, and the Ct values (Ct1, Ct2, and Ct3) were averaged.ΔCt = Ct (gene of interest) − Ct (housekeeping gene)(1)
# We calculated the ΔΔCt from the ΔCt values of the Cyclin D1 and BCL2. […]
# [5] = system: MDA-MB-231 cells; parameters: method as in PMID 24278556; details: reference drug, reported value; cited from earlier work
SMILES,IC50 [1] [µM],IC50 [2] [µM],IC50 ([1]; Chlorocebus sabaeus) [µM],Cyclin D1 ΔΔCt [3],IC50 ([2]; Homo sapiens) [µM],other results
Cc1c/c(=N\NC(=S)/N=C/c2ccc(Cl)cc2Cl)oc2cc(O)ccc12 [Compound 7a],513,357,–,–,–,–
COc1ccc(/C=N/C(=S)N/N=c2\cc(C)c3ccc(O)cc3o2)cc1 [Compound 7i],292,237,–,–,–,–
Cc1c/c(=N\NC(=S)/N=C/c2ccc(Br)cc2)oc2cc(O)ccc12 [Compound 7m],149,90.5,–,–,–,–
Oc1c/c(=N\NC(=S)/N=C/c2ccc(Cl)cc2)oc2ccccc12 [Compound 9b],–,–,60.9,−0.57,14.5,Relative gene expression CyclinD1 ([3]; control = 1): 1.485; Cyclin D1 2^(−ΔΔCt) ([3]; fold gene expression): 1.485; BCL2 ΔΔCt [4]: 1.42
Oc1c/c(=N\NC(=S)/N=C/c2cccc3ccccc23)oc2ccccc12 [Compound 9c],87.4,61.5,–,–,–,–
O=[N+]([O-])c1ccc(/C=N/C(=S)N/N=c2\cc(O)c3ccccc3o2)cc1 [Compound 9l],–,–,87.7,2.2,35.1,–
Oc1c/c(=N\NC(=S)/N=C/c2ccc(Br)cc2)oc2ccccc12 [Compound 9m],–,–,68.7,2.03,42.1,BCL2 ΔΔCt [4]: 1.41
Oc1cc(/C=N/C(=S)N/N=c2\cc(O)c3ccccc3o2)cc(O)c1O [Compound 9n],119,47.7,–,–,–,–
O=C(c1ccc(OCCN2CCCCC2)cc1)c1c(-c2ccc(O)cc2)sc2cc(O)ccc12 [Raloxifene],–,–,–,–,–,IC50 [5]: 13.7 µM
